Data as given in ChEMBL document CHEMBL4402585 (J Med Chem, 2020).
The source made the active and inactive calls. The calls are words filed in the database; no cut-off is given here.

Tests used:
[1] = Clearance in dog liver microsomes at 0.1 uM preincubated for 10 mins followed by NADPH addition and measured up to 60 mins by LC-MS/MS analysis; format: ADME, Canis lupus familiaris, Microsome; settings: 1 h
[2] = target: Bromodomain-containing protein 2 (Homo sapiens, UniProt P25440); test: Binding affinity to human partial length BRD2 BD2 isoform 1 (E348 to D455 residues) expressed in bacterial expression system by bromoscan assay
Bromodomain-containing protein 2, sequence (P25440 whole entry, the tested form may be a part, canonical isoform): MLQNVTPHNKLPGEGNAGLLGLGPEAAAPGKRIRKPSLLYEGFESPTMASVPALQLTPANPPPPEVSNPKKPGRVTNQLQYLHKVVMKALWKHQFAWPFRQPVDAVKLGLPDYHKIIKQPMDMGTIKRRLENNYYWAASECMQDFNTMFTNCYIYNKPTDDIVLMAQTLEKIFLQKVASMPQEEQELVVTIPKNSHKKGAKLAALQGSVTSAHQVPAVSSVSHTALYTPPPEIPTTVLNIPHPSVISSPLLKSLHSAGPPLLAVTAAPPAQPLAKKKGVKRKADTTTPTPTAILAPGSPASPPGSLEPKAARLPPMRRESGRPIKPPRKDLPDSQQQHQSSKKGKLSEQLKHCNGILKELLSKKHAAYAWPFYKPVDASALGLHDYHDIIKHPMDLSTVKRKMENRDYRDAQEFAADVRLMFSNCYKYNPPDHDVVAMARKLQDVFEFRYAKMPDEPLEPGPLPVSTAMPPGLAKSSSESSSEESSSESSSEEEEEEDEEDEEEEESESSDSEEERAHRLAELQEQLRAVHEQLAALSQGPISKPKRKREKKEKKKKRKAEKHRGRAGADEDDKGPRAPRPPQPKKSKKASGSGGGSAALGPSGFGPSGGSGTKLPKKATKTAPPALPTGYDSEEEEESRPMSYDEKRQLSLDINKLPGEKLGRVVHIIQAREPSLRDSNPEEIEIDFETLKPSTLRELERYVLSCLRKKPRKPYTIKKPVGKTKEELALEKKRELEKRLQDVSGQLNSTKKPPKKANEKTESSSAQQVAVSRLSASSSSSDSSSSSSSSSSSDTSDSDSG

[3] = Half life in dog liver microsomes at 0.1 uM preincubated for 10 mins followed by NADPH addition and measured up to 60 mins by LC-MS/MS analysis; format: ADME, Canis lupus familiaris, Microsome
Cytochrome P450 2C19 = Cytochrome P450 2C19 (Homo sapiens, UniProt P33261); test: Inhibition of CYP2C19 in human liver microsomes using S-mephenytoin as substrate preincubated for 10 mins followed by NADPH addition and measured after 15 mins by LC-MS/MS analysis; format: ADME
Cytochrome P450 2C19, sequence (P33261 whole entry): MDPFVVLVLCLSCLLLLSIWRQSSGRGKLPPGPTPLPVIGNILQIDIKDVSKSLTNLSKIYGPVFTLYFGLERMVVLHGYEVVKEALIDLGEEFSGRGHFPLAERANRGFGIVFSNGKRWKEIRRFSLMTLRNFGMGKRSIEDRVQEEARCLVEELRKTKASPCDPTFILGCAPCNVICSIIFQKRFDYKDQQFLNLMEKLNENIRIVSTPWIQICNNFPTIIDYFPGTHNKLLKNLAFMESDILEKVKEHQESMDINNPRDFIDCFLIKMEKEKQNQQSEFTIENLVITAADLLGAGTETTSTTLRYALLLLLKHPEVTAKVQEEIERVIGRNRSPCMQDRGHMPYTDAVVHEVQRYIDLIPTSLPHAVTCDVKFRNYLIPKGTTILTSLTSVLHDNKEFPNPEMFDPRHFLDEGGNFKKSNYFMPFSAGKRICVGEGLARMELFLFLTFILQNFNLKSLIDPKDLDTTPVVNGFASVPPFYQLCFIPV

[4] = AUC (0 to t) in Sprague-Dawley rat at 3 mg/kg, po by LC-MS/MS analysis; format: ADME, organism-based; settings: in vivo
[5] = target: Bromodomain testis-specific protein (Homo sapiens, UniProt Q58F21); test: Binding affinity to human partial length BRDT bromodomain 2 isoform b (K250 to E382 residues) expressed in bacterial expression system by bromoscan assay
[6] = Half life in monkey liver microsomes at 0.1 uM preincubated for 10 mins followed by NADPH addition and measured up to 60 mins by LC-MS/MS analysis; format: ADME, Macaca mulatta, Microsome; settings: rhesus monkey
[7] = Oral bioavailability in mouse at 3 mg/kg by LC-MS/MS analysis; format: ADME, organism-based; settings: in vivo
Cytochrome P450 3A4 [8] = target: T1, Cytochrome P450 3A4 (Homo sapiens, UniProt P08684); test: Inhibition of CYP3A4 in human liver microsomes using testosterone as substrate preincubated for 10 mins followed by NADPH addition and measured after 15 mins by LC-MS/MS analysis; format: ADME
T1 sequence (P08684 whole entry): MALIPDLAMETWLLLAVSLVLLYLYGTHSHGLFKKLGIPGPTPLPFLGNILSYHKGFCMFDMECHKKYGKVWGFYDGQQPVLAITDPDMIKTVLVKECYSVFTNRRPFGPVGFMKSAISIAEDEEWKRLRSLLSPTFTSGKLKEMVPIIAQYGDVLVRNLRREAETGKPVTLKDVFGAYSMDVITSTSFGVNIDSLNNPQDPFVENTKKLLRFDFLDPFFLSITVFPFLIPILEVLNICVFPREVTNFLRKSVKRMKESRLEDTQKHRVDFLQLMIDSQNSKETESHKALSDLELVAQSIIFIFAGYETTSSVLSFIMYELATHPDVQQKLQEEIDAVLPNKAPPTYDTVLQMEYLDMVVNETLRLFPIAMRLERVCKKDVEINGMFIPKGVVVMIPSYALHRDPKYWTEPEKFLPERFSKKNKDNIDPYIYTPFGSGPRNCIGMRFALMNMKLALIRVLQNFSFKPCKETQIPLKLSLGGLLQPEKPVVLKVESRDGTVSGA

[9] = Half life in Sprague-Dawley rat at 1 mg/kg, iv by LC-MS/MS analysis; format: ADME, organism-based; settings: in vivo
Cytochrome P450 3A4 [10] = target: T1, Cytochrome P450 3A4; test: Inhibition of CYP3A4 in human liver microsomes using midazolam as substrate preincubated for 10 mins followed by NADPH addition and measured after 15 mins by LC-MS/MS analysis; format: ADME
[11] = AUC (0 to t) in mouse at 3 mg/kg, po by LC-MS/MS analysis; format: ADME, organism-based; settings: in vivo
[12] = Clearance in rat liver microsomes at 0.1 uM preincubated for 10 mins followed by NADPH addition and measured up to 60 mins by LC-MS/MS analysis; format: ADME, Microsome; settings: 1 h
MV4-11 [13] = test: Antitumor activity against human MV4-11 cells xenografted in mouse assessed as tumor growth inhibition at 6.25 mg/kg, po administered for 28 days and measured every 2 to 3 days during compound dosing relative to control; format: functional; settings: MV4-11, po, read-out: TGI
[14] = Cmax in mouse at 3 mg/kg, po by LC-MS/MS analysis; format: ADME, organism-based; set-up: dose 3 mg/kg, route oral; settings: in vivo
Kasumi 1 = test: Antiproliferative activity against human Kasumi-1 cells assessed as reduction in cell viability measured after 72 hrs by Celltitre-glo luminescence assay; format: functional, cell-based; settings: Kasumi 1, 72 h
Cytochrome P450 2D6 = Cytochrome P450 2D6 (Homo sapiens, UniProt P10635); test: Inhibition of CYP2D6 in human liver microsomes using dextromethorphan as substrate preincubated for 10 mins followed by NADPH addition and measured after 15 mins by LC-MS/MS analysis; format: ADME
Cytochrome P450 2D6, sequence (P10635 whole entry): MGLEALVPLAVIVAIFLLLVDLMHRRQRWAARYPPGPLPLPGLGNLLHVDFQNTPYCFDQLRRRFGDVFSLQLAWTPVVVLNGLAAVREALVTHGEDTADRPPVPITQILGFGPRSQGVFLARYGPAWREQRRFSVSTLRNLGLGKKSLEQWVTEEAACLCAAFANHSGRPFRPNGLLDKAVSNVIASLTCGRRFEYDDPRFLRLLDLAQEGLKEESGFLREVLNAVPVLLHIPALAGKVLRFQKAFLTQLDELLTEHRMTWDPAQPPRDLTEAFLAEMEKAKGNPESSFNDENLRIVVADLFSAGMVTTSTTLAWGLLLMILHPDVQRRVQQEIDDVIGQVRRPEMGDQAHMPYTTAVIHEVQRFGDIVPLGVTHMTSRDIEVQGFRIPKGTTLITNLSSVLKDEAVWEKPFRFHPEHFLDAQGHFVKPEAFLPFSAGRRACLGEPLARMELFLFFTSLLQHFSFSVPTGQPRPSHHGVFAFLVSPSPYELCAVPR

[15] = Volume of distribution at steady state in mouse at 3 mg/kg, iv by LC-MS/MS analysis; format: ADME, organism-based; settings: in vivo, read-out: Vdss
[16] = AUC (0 to t) in Sprague-Dawley rat at 1 mg/kg, iv by LC-MS/MS analysis; format: ADME, organism-based; settings: in vivo
Cytochrome P450 1A2 = target: T2, Cytochrome P450 1A2 (Homo sapiens, UniProt P05177); test: Inhibition of CYP1A2 in human liver microsomes using phenacetin as substrate preincubated for 10 mins followed by NADPH addition and measured after 15 mins by LC-MS/MS analysis; format: ADME
T2 sequence (P05177 whole entry): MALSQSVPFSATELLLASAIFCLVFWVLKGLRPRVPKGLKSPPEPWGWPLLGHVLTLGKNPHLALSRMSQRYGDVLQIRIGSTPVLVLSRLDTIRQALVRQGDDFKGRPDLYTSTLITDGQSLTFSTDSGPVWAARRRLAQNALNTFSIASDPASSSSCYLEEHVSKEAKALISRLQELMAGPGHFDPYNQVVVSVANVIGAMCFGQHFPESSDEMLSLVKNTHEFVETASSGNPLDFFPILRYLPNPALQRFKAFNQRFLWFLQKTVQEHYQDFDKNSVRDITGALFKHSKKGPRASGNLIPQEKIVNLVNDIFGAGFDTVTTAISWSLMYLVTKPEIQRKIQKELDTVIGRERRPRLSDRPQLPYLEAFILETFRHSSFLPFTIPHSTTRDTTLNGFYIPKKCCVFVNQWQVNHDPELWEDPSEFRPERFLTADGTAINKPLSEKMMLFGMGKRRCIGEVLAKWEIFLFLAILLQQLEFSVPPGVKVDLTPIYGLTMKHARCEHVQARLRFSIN

[17] = Oral bioavailability in Sprague-Dawley rat at 3 mg/kg by LC-MS/MS analysis; format: ADME, organism-based; settings: in vivo
MV4-11 [18] = test: Antitumor activity against human MV4-11 cells xenografted in mouse assessed as tumor growth inhibition at 12.5 mg/kg, po administered for 28 days and measured every 2 to 3 days during compound dosing relative to control; format: functional; settings: MV4-11, po, read-out: TGI
RS4-11 = test: Antiproliferative activity against human RS4:11 cells assessed as reduction in cell viability measured after 72 hrs by Celltitre-glo luminescence assay; format: functional, cell-based; settings: RS4-11, 72 h
[19] = target: Voltage-gated inwardly rectifying potassium channel KCNH2 (Homo sapiens, UniProt Q12809); test: Inhibition of human ERG at 40 uM by Qpatch automatic patch clamp method
Voltage-gated inwardly rectifying potassium channel KCNH2, sequence (Q12809 whole entry): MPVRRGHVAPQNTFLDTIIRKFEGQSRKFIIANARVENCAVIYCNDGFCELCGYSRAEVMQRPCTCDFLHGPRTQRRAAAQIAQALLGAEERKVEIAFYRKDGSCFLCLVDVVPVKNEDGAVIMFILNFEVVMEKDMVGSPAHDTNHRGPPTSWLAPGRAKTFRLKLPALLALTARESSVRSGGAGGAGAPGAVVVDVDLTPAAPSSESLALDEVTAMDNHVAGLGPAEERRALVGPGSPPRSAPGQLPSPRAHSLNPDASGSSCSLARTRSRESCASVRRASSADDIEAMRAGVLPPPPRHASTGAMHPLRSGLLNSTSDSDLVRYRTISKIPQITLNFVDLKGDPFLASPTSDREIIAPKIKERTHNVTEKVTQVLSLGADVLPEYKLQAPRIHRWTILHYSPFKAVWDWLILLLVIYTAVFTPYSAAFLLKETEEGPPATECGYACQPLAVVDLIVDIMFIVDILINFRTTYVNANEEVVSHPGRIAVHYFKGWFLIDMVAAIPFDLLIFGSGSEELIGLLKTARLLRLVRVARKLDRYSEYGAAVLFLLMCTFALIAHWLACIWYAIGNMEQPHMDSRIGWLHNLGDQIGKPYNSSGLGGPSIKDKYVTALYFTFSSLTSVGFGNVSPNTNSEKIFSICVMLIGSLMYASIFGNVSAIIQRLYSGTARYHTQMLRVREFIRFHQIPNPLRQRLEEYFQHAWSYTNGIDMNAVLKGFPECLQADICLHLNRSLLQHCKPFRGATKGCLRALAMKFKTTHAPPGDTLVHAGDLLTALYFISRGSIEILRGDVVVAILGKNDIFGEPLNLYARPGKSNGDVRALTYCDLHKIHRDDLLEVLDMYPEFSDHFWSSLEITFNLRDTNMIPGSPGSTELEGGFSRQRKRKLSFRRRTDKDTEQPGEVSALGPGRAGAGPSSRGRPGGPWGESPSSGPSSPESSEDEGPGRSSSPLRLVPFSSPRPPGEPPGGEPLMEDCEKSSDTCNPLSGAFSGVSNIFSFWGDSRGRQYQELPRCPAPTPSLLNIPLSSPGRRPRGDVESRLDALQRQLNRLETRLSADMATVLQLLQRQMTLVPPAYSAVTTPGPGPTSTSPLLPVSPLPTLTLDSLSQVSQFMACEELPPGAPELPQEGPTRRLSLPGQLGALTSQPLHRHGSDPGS

[20] = Half life in rat liver microsomes at 0.1 uM preincubated for 10 mins followed by NADPH addition and measured up to 60 mins by LC-MS/MS analysis; format: ADME, Microsome
MV4-11 [21] = test: Cell cycle arrest in human MV4-11 cells assessed as increase in accumulation at G1-phase at 31.25 nM measured after 24 hrs by propidium iodide staining based flow cytometry; format: functional
[22] = Half life in Sprague-Dawley rat at 3 mg/kg, po by LC-MS/MS analysis; format: ADME, organism-based; settings: in vivo
[23] = target: Bromodomain-containing protein 4 (Homo sapiens, UniProt O60885)
Description: Binding affinity to N-terminal His6-tagged BRD4 bromodomain 1 (49 to 170 residues) (unknown origin) expressed in Escherichia coli BL21 (DE3) assessed as change in melting temperature at 1:100 molar ratio by SYPRO orange dye based fluorescence thermal shift assay

[24] = Cmax in Sprague-Dawley rat at 3 mg/kg, po by LC-MS/MS analysis; format: ADME, organism-based; set-up: dose 3 mg/kg, route oral; settings: in vivo
[25] = Clearance in monkey liver microsomes at 0.1 uM preincubated for 10 mins followed by NADPH addition and measured up to 60 mins by LC-MS/MS analysis; format: ADME, Macaca mulatta, Microsome; settings: rhesus monkey, 1 h
[26] = Clearance in Sprague-Dawley rat at 1 mg/kg, iv by LC-MS/MS analysis; format: ADME, organism-based; settings: in vivo
Cytochrome P450 2C9 = Cytochrome P450 2C9 (Homo sapiens, UniProt P11712); test: Inhibition of CYP2C9 in human liver microsomes using tolbutamide as substrate preincubated for 10 mins followed by NADPH addition and measured after 15 mins by LC-MS/MS analysis; format: ADME
Cytochrome P450 2C9, sequence (P11712 whole entry): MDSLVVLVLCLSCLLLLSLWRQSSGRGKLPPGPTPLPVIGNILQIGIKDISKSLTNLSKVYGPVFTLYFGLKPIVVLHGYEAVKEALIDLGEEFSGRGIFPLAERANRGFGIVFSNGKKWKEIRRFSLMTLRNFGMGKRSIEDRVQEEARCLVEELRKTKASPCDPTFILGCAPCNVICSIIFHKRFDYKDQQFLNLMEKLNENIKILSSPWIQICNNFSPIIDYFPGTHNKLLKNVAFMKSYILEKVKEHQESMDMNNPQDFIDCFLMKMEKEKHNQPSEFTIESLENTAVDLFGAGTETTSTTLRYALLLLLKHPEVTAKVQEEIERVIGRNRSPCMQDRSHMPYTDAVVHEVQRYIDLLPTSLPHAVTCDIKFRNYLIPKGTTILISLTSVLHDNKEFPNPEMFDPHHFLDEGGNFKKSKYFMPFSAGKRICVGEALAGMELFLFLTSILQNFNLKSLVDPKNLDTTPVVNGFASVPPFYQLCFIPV

For CCS(=O)(=O)Cc1cnc(Oc2ccc(F)cc2F)c(-c2cc(C)c3c(=O)[nH]ccn23)c1, the CLH [1] was 25.2 mL/min/g, the Kd [2] was 1.3 nM and the half-life at 0.1 µM [3] was 83.4 min. The IC50 (Cytochrome P450 2C19) was > 20 µM, the AUC(0-t) [4] was 884 ng·h/mL and the Kd [5] was 2.1 nM. For the same molecule, the half-life at 0.1 µM [6] was 49 min, the bioavailability [7] was 52.3% and the IC50 (Cytochrome P450 3A4 [8]) was > 20 µM. For the same molecule, the half-life [9] was 78 min, the IC50 (Cytochrome P450 3A4 [10]) was > 20 µM and the AUC(0-t) [11] was 1710 ng·h/mL. The Intrinsic clearance [12] was 64.8 mL/min/g, the inhibition in vivo at 6.25 mg/kg (MV4-11 [13]) was 76.4% and the Cmax [14] was 399 ng/mL. The IC50 (Kasumi 1) was 7.4 nM, the IC50 (Cytochrome P450 2D6) was > 20 µM and the Vd [15] was 0.782 L/kg. The AUC(0-t) [16] was 848 ng·h/mL, the IC50 (Cytochrome P450 1A2) was > 20 µM and the bioavailability [17] was 34.7%. The inhibition in vivo at 12.5 mg/kg (MV4-11 [18]) was 99.7%, the IC50 (RS4-11) was 22.1 nM and the “inhibition (INH)” value [19] was “Not Active”. For the same molecule, the half-life at 0.1 µM [20] was 32.4 min, the Activity (MV4-11 [21]) was “Active” and the half-life [22] was 216 min. The ΔTm [23] was > 1 °C, the Cmax [24] was 159 ng/mL and the CLH [25] was 42.7 mL/min/g. For the same molecule, the clearance [26] was 21.5 mL/min/kg and the IC50 (Cytochrome P450 2C9) was > 20 µM.
